# Results taken from patent EP4643856A1, “CARBAZOLE DERIVATIVES USED AS NEUROPROTECTANTS AND IN THE TREATMENT OF DISORDERS WITH REDUCED NAD METABOLISM” (Centre National de la Recherche Scientifique, priority 2024, dated 2025).
# “Also recorded” adds a separate entry of the source.
# How the values were obtained:
# HeLa cells [1] = test: FK866-induced cytotoxicity, viability assay (prestoblue assay); format: cell-based; conditions: 3.5 nM FK866 in the presence of 6 µM compound, 72 hours
# Description: (§1) This clearly indicates an activation of the pathways leading to NADH production. • Figure 3 represents the effect of compounds I-a, I-f, I-m, I-n, I-q and the comparative example on the cytotoxicity mediated by NAMPT inhibitor FK866. HeLa cells were seeded in microplates and incubated with 3.5 nM FK866 without (black) or in the presence of 6 µM of I-a and different analogues (grey), as indicated, for 72 hours. A viability assay (prestoblue assay) was then conducted. […] Behavioral assessments were performed on 5-week-old male Sprague-Dawley rats before (basal values) and at days 4, 7, 11 and 14 after the beginning of the drug injections (Compound I-a 50 mg/kg, paclitaxel (PTX) 4 mg/kg, Compound I-a 50 mg/kg + PTX 4 mg/kg). Control animals (Vehicle) received vehicle injections. The results are presented by mean ± standard deviation (n = 6 per group). Tactile nociceptive thresholds were assessed using an electronic von Frey test (J. Ferrier, F. Marchand, D. Balayssac, Assessment of mechanical allodynia in rats using the electronic von frey test, BIO-Protoc., 6 (2016), 10.21769/BioProtoc.1933). Rats were placed individually in plastic compartments on an elevated wire floor and left for habituation for 15 min before each experiment. […] The maximum force applied (expressed in grams) to induce paw withdrawal was recorded automatically.
# The compound FK866 is known to be a potent selective inhibitor of the NAMPT enzyme. Administration of FK866 in cultured cells results in depletion of intracellular NAD levels and subsequent cell death. The effect of compound I-a and other compounds of the series on FK866-induced cytotoxicity in HeLa cells was assayed.
# HeLa cells were seeded in microplates and incubated with 3.5 nM FK866 without (black) or in the presence of 6 µM of I-a and different analogues (grey), as indicated, for 72 hours. A viability assay (prestoblue assay) was then conducted.
# NAMPT = NAMPT (Homo sapiens, UniProt P43490); test: NAMPT activation in vitro, biochemical assay
# Chain of NAMPT (P43490 whole entry, species assumed): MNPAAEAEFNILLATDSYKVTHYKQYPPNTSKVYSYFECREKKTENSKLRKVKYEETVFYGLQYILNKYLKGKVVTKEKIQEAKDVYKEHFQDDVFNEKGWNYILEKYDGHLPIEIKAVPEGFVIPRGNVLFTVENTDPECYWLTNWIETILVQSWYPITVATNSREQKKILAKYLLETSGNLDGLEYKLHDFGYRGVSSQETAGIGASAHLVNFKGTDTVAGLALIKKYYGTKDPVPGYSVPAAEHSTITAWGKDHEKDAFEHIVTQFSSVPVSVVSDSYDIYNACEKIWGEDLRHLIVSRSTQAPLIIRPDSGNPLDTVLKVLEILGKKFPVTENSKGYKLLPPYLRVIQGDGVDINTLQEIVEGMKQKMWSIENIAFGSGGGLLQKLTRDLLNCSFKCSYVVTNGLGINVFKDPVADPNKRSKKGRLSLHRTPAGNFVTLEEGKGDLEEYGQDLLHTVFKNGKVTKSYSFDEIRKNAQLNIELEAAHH
# HeLa cells [2] = test: Kinetics of NADH autofluorescence (endogenous NADH production) by confocal microscopy; format: cell-based; conditions: I-a (5 µM) or I-s (0.5 µM), 25-minute analysis, in comparison with controls
# [3] = system: rat model of paclitaxel-induced neuropathy; test: Rat model of paclitaxel-induced neuropathy, electronic von Frey test; format: in vivo; conditions: days 4, 7, 11 and 14
# Description: as §1
Compound,effect on FK866-induced cell death (HeLa cells [1]),other results
"COc1cccc(NCC(F)Cn2c3ccc(Cl)cc3c3c(C)c(-n4cccc4)cc(C)c32)c1 (centres unmarked) [Comparative example, N-[3-(6-chloro-1,4-dimethyl-3-pyrrol-1-yl-carbazol-9-yl)-2-fluoro-propyl]-3-methoxy-aniline, reference compound]",does not reduce FK866-induced cell death,
"Cc1cc(-n2cccc2)c(C)c2c1[nH]c1ccc(Cl)cc12 [I-a, 6-chloro-1,4-dimethyl-3-pyrrol-1-yl-9H-carbazole]",significantly reduced cell death,"NAMPT activation (NAMPT): activates NAMPT in vitro; NADH production (NADH autofluorescence) (HeLa cells [2]): dose-dependent increase in NADH production; tactile sensitivity (tactile nociceptive thresholds, von Frey) ([3]; Compound I-a 50 mg/kg + PTX 4 mg/kg, force in grams, n = 6 per group): prevents the hypersensitivity induced by PTX"
Cc1cc(-n2cccc2)c(C)c2c1[nH]c1ccc(Br)cc12 [I-f],can relieve the cytotoxicity of the NAMPT inhibitor FK866; also recorded: reduced cell death,
Cc1cc(-n2cccc2)c(C)c2c1[nH]c1ccc(O)cc12 [I-m],no detectable protective effect,
CCOC(=O)Oc1ccc2[nH]c3c(C)cc(-n4cccc4)c(C)c3c2c1 [I-n],significantly reduced cell death,
CCc1cccc2c1[nH]c1c(C)cc(-n3cccc3)c(C)c12 [I-q],significantly reduced cell death,
Cc1cc(-n2ccc(CO)c2)c(C)c2c1[nH]c1ccc(Cl)cc12 [I-s],,NADH production (NADH autofluorescence) (HeLa cells [2]): dose-dependent increase in NADH production
"CC(=O)O[C@H]1C(=O)[C@@]2(C)[C@H]([C@H](OC(=O)c3ccccc3)[C@]3(O)C[C@H](OC(=O)[C@H](O)[C@@H](NC(=O)c4ccccc4)c4ccccc4)C(C)=C1C3(C)C)[C@]1(OC(C)=O)CO[C@@H]1C[C@@H]2O [PTX, paclitaxel, reference compound]",,"tactile sensitivity (tactile nociceptive thresholds, von Frey) ([3]; PTX 4 mg/kg alone, compared with basal value at day 0): progressively induce a tactile hypersensitivity; also recorded: developed progressively tactile hypersensitivity"
